Assay results taken from EP0635577B1, “Screen for inhibitors of melanin biosynthesis” (BASF AKTIENGESELLSCHAFT, priority 1993, dated 1995).

Legend:
Cladosporium cucumerinum = assay: melanin biosynthesis inhibition screen, disk diffusion assay on solidified culture; type: cell-based; conditions: for Observation: effect on growth and pigmentation in words; for Observation: inhibits, radius cleared: growth inhibition zone
Description: Potato dextrose medium (PDM) for the screening test is prepared by melting
The mixture is autoclaved as 150 ml aliquots at 121°C for 25 minutes.
A chloramphenicol stock solution is prepared to contain 15 mg chloramphenicol per mL absolute ethanol and is stored at -20°C.
Conidia from Cladosporium cucumerinum, 10^7/mL in 0.03% Tween 20™, retain their viability for at least 12 weeks of storage in 1.8 ml cryovials at -85°C. Inoculum for running the screen are raised once every three months and stored without a cryoprotectant at the working concentration of 10^7 conidia/mL.
Fresh inoculum suspensions are prepared from conidial suspensions stored at -85°C. A cryovial is thawed by hand-heat, and 200 uL spread on the surface of PDA in 9 cm Petri dishes. Plates are placed in a resin box (to prevent fungal escape) and incubated at room temperature, 40 cm below laboratory fluorescent lights. Seven days later conidia are collected. Five mL of 0.03% Tween 20™ is added to each plate, and the conidia are released by rubbing the mycelium with a glass rod. The suspension is passed through a layer of sterile Miracloth™ and the concentration adjusted to 10^7 conidia/mL in 0.03% Tween 20™ using a haemocytometer. Aliquots of 1 mL are dispensed into cryovials and placed in a polystyrene holder to freeze slowly to -85°C.
For the test, 150 mL of PDM is cooled to 35°C, and 0.1 mL of chloramphenicol stock solution is added by gentle swirling. A vial of C. cucumerinum conidial suspension (10^7 conidia/ml in Tween 20™) thawed with hand-heat is mixed into the growth medium using gentle swirling. The mixture is poured immediately into a Biotray, and the agar is allowed to solidify.
Test compounds are applied to 0.63 cm (¼ inch) filter disks. Each test includes a positive control, 200 ng tricyclazole in 20% dimethyl sulphoxide (DMSO). The plate is incubated at room-temperature (∼23°C) 40 cm below laboratory fluorescent lights. The plate is read 40 hours later. […] The Biotrays are autoclaved before disposal.
The compounds are applied as 20 ul droplets from a 1 mg/ml stock solution.

[1] = tested on: wild-type strain M. grisea
[2] = C. cucumerinum Antibiotic Panel, screen of Example 1

Row | Compound | Observation (Cladosporium cucumerinum; [2]) | other results
1 | Ristocedin | no effect on growth or pigmentation | 
2 | Dermostatin | no effect on growth or pigmentation | 
3 | CSC[S@+]([O-])C[C@H](CO)NC(=O)/C=C/c1c(C)[nH]c(=O)[nH]c1=O [Sparsomycin] | no effect on growth or pigmentation | 
4 | Cc1cccc2sc3nncn3c12 [tricyclazole] |  | inhibition of penetration ([1]; 15 ng in 1.5% acetone, onion epidermal pieces, 25°C for 24 hours): 100%; penetration of freshly harvested onion epidermis by wild-type M. grisea ([1]; in the presence of the inhibitor, about 90 to 95% of germinating wild-type conidia penetrate without it): no penetration
5 | C[C@H]1CCC/C=C/[C@@H]2C[C@H](O)C[C@H]2[C@H](O)/C=C/C(=O)O1 [Ascotoxin] | no effect on growth or pigmentation | 
6 | NC[C@H]1O[C@H](O[C@H]2[C@H](O)[C@@H](O[C@H]3O[C@H](CO)[C@@H](O)[C@H](N)[C@H]3O)[C@H](N)C[C@@H]2N)[C@H](O)[C@@H](O)[C@@H]1O [Kanamycin] |  | Observation: inhibits, radius cleared (Cladosporium cucumerinum; Antifungal Panel, 20 ul droplets from a 1 mg/ml stock solution on filter disk, read 40 hours later): inhibits, 10 mm radius cleared
7 | C[C@H]1C[C@H](C)C(=O)[C@@H]([C@H](O)CC2CC(=O)NC(=O)C2)C1 [Naramycin B] |  | Observation: inhibits, radius cleared (Cladosporium cucumerinum; [2]): inhibits, 15 mm radius cleared
